Patent publication US20260085066A1, “LEUCINE RICH REPEAT KINASE 2 (LRRK2) DEGRADING COMPOUNDS AND ASSOCIATED METHODS OF USE” (Arvinas Operations, Inc., priority 2022, published 2026)

Target: T1, WT LRRK2 (Homo sapiens, UniProt Q5S007)
T1 construct: endogenous in cells; host or cells: HEK293 cells with HiBit knocked into the endogenous LRRK2 gene, stably expressing firefly luciferase
Assay: LRRK2 degradation HiBit assay in HEK293 cells (Nano-Glo Dual-Luciferase)
Assay type: cell-based
Details: HiBit-tagged LRRK2 in HEK293 cells, 24 hours compound treatment

T1 sequence (Q5S007 whole entry): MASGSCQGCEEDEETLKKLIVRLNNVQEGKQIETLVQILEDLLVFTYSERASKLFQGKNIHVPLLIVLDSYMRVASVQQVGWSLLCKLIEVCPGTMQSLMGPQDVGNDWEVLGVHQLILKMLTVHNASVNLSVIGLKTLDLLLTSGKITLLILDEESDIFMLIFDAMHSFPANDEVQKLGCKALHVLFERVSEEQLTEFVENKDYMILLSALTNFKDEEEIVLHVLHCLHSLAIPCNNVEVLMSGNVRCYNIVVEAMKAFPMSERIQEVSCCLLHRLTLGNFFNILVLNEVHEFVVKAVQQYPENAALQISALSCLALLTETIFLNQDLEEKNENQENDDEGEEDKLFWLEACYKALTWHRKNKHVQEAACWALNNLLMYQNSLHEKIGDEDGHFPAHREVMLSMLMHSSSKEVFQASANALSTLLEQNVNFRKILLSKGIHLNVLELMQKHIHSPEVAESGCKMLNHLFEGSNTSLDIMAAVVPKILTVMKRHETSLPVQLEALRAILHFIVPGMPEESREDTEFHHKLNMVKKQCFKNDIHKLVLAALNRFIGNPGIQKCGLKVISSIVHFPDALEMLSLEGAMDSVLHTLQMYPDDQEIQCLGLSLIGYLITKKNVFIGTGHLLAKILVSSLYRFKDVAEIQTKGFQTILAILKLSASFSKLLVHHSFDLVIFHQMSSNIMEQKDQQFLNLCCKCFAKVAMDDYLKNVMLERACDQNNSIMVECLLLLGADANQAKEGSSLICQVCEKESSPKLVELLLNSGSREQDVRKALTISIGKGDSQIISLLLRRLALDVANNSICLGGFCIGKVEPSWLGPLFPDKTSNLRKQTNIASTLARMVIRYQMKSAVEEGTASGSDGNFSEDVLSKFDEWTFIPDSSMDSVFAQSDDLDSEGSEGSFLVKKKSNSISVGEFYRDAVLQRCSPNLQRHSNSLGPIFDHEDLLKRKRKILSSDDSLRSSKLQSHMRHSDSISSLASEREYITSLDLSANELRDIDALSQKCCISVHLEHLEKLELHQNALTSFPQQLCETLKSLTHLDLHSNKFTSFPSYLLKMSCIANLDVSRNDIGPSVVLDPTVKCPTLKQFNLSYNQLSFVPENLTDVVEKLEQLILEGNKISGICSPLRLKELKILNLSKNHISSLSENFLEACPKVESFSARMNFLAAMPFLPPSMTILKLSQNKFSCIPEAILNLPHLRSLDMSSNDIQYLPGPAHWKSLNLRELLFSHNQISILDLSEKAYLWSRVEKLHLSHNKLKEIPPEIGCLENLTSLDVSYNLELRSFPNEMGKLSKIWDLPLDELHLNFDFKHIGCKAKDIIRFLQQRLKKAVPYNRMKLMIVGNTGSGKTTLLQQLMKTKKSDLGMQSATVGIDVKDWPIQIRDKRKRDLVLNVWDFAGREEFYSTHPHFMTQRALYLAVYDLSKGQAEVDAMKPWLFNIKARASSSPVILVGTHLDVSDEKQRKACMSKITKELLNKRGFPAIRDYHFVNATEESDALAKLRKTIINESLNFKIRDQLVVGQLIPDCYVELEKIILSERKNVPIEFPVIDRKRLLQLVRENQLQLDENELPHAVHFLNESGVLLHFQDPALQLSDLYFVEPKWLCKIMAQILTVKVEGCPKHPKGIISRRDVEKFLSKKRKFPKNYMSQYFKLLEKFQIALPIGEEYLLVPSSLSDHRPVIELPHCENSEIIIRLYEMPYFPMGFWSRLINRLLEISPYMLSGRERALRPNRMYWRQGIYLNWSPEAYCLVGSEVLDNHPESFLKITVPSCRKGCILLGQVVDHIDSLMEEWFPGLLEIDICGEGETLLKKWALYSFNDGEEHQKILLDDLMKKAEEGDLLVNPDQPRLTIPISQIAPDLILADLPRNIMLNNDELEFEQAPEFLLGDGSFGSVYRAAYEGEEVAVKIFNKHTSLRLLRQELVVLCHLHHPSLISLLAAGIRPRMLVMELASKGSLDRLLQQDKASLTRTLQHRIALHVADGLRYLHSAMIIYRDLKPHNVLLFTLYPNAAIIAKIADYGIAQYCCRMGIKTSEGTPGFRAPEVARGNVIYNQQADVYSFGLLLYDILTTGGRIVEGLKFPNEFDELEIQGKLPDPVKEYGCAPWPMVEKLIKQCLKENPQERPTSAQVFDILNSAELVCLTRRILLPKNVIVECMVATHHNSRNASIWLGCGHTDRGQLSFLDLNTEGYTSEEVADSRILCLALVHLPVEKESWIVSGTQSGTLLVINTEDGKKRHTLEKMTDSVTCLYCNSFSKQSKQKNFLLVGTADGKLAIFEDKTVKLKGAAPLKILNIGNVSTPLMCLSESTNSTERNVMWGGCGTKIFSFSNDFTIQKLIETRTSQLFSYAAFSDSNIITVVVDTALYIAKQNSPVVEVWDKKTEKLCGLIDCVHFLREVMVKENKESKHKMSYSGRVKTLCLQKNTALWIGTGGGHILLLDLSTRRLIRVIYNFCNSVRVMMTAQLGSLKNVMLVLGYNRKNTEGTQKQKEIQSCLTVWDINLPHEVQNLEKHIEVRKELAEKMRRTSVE

Row | SMILES | Dmax [%]
1 | CC1(Oc2ccc3[nH]nc(-c4cc(N5CCO[C@H](CN6CCN(CC7CCN(c8ccc9c(c8F)CN(C8CCC(=O)NC8=O)C9=O)CC7)CC6)C5)ncn4)c3c2)CC1 (stereo partly drawn) [Example 1, 3-[4-fluoro-5-[4-[[4-[[(2R)-4-[6-[5-(1-methylcyclopropoxy)-1H-indazol-3-yl]pyrimidin-4-yl]morpholin-2-yl]methyl]piperazin-1-yl]methyl]-1-piperidyl]-1-oxo-isoindolin-2-yl]piperidine-2,6-dione] | 50 to 70
2 | CC1(Oc2ccc3[nH]nc(-c4cc(N5CCO[C@@H](CN6CCN(CC7CCN(c8ccc9c(c8F)CN(C8CCC(=O)NC8=O)C9=O)CC7)CC6)C5)ncn4)c3c2)CC1 (some centres unmarked) [Example 2] | 50 to 70
3 | CC1(Oc2ccc3[nH]nc(-c4cc(N5CCO[C@H](CN6CCN(CC7CCN(c8ccc9c(c8F)CN(C8CCC(=O)NC8=O)C9=O)CC7)CC6(C)C)C5)ncn4)c3c2)CC1 (some centres unmarked) [Example 3] | 50 to 70
4 | COc1c(N2CCC(O[C@H]3C[C@H](N4CCC5(CC4)CN(c4cc(-c6[nH]nc7ccc(OC8(C)CC8)cc67)ncn4)C5)C3)CC2)ccc2c1CN(C1CCC(=O)NC1=O)C2=O (some centres unmarked) [Example 4, 3-[4-methoxy-5-[4-[3-[2-[6-[5-(1-methylcyclopropoxy)-2H-indazol-3-yl]pyrimidin-4-yl]-2,7-diazaspiro[3.5]nonan-7-yl]cyclobutoxy]-1-piperidyl]-1-oxo-isoindolin-2-yl]piperidine-2,6-dione] | 50 to 70
5 | CC1(Oc2ccc3[nH]nc(-c4cc(N5CCN(C[C@@H]6CN(CCC7CCN(c8ccc9c(c8F)CN(C8CCC(=O)NC8=O)C9=O)CC7)CCO6)CC5)ncn4)c3c2)CC1 (some centres unmarked) [Example 5] | 50 to 70
6 | CC1(Oc2ccc3[nH]nc(-c4cc(N5CCN(CCC6(F)CCN(CC7CCN(c8ccc9c(c8F)CN(C8CCC(=O)NC8=O)C9=O)CC7)CC6)CC5)ncn4)c3c2)CC1 (centres unmarked) [Example 6, 3-[4-fluoro-5-[4-[[4-fluoro-4-[2-[4-[6-[5-(1-methylcyclopropoxy)-1H-indazol-3-yl]pyrimidin-4-yl]piperazin-1-yl]ethyl]-1-piperidyl]methyl]-1-piperidyl]-1-oxo-isoindolin-2-yl]piperidine-2,6-dione] | 50 to 70
7 | CC1(Oc2ccc3[nH]nc(-c4cc(N5CCC(CN6CC[C@@H](CN7CCN(c8ccc9c(c8F)CN(C8CCC(=O)NC8=O)C9=O)CC7)[C@@H](F)C6)CC5)ncn4)c3c2)CC1 (some centres unmarked) [Example 7] | 50 to 70
8 | CC1(Oc2ccc3[nH]nc(-c4cc(N5CCN(CCN6CCN(CC7CCN(c8ccc9c(c8F)CN(C8CCC(=O)NC8=O)C9=O)CC7)CC6)CC5)ncn4)c3c2)CC1 (centres unmarked) [Example 8] | 50 to 70
9 | CC1(Oc2ccc3[nH]nc(-c4cc(N5CCN(C[C@@H]6CCN(CC7CCN(c8ccc9c(c8F)CN(C8CCC(=O)NC8=O)C9=O)CC7)C[C@@H]6F)CC5)ncn4)c3c2)CC1 (some centres unmarked) [Example 9] | 50 to 70
10 | CC1(Oc2ccc3[nH]nc(-c4cc(N5CCN(C[C@H]6CC[C@H](CN7CCN(c8ccc9c(c8F)CN(C8CCC(=O)NC8=O)C9=O)CC7)OC6)CC5)ncn4)c3c2)CC1 (some centres unmarked) [Example 10] | 50 to 70
11 | CC1(Oc2ccc3[nH]nc(-c4cc(N5CCC(O[C@@H]6CCN(CC7CCN(c8ccc9c(c8F)CN(C8CCC(=O)NC8=O)C9=O)CC7)C(C)(C)C6)CC5)ncn4)c3c2)CC1 (some centres unmarked) [Example 11] | 50 to 70
12 | CC1(Oc2ccc3[nH]nc(-c4cc(N5CCN(C[C@H]6CN(CC7CCN(c8ccc9c(c8F)CN(C8CCC(=O)NC8=O)C9=O)CC7)CCO6)CC5)ncn4)c3c2)CC1 (stereo partly drawn) [Example 12, 3-[4-fluoro-5-[4-[[(2S)-2-[[4-[6-[5-(1-methylcyclopropoxy)-1H-indazol-3-yl]pyrimidin-4-yl]piperazin-1-yl]methyl]morpholin-4-yl]methyl]-1-piperidyl]-1-oxo-isoindolin-2-yl]piperidine-2,6-dione] | 50 to 70
13 | CC1(Oc2ccc3[nH]nc(-c4cc(N5CCN(C[C@@H]6CN(CC7CCN(c8ccc9c(c8F)CN(C8CCC(=O)NC8=O)C9=O)CC7)CCO6)CC5)ncn4)c3c2)CC1 (some centres unmarked) [Example 13] | 50 to 70
14 | CC1(Oc2ccc3[nH]nc(-c4cc(N5CCN(C[C@H]6CC[C@H](OC7CCN(c8ccc9c(c8)CN(C8CCC(=O)NC8=O)C9=O)CC7)CC6)CC5)ncn4)c3c2)CC1 (some centres unmarked) [Example 14, 3-[5-[4-[4-[[4-[6-[5-(1-methylcyclopropoxy)-1H-indazol-3-yl]pyrimidin-4-yl]piperazin-1-yl]methyl]cyclohexoxy]-1-piperidyl]-1-oxo-isoindolin-2-yl]piperidine-2,6-dione] | 50 to 70
15 | CC1(Oc2ccc3[nH]nc(-c4cc(N5CCN(CC(F)(F)C6CCN(CC7CCN(c8ccc9c(c8F)CN(C8CCC(=O)NC8=O)C9=O)CC7)CC6)CC5)ncn4)c3c2)CC1 (centres unmarked) [Example 15] | 50 to 70
16 | CC1(Oc2ccc3[nH]nc(-c4cc(N5CCO[C@@H](CN6CCN(CC7CCN(c8ccc9c(c8F)CN(C8CCC(=O)NC8=O)C9=O)CC7)CC6(C)C)C5)cnn4)c3c2)CC1 (some centres unmarked) [Example 16] | 50 to 70
17 | CC1(Oc2ccc3[nH]nc(-c4cc(N5CCN(C[C@H]6CN(CCC7CCN(c8ccc9c(c8F)CN(C8CCC(=O)NC8=O)C9=O)CC7)CCO6)CC5)ncn4)c3c2)CC1 (some centres unmarked) [Example 17] | 50 to 70
18 | Cc1cc(N2CCC(O[C@H]3CC[C@H](CN4CCN(c5cc(-c6n[nH]c7ccc(OC8(C)CC8)cc67)ncn5)CC4)CC3)CC2)c(F)c2c1C(=O)N(C1CCC(=O)NC1=O)C2 (some centres unmarked) [Example 18, 3-(4-fluoro-7-methyl-5-(4-(((1r,4r)-4-((4-(6-(5-(1-methylcyclopropoxy)-1H-indazol-3-yl)pyrimidin-4-yl)piperazin-1-yl)methyl)cyclohexyl)oxy)piperidin-1-yl)-1-oxoisoindolin-2-yl)piperidine-2,6-dione] | ≥ 70
19 | Cc1cc(N2CCC(CN3CCN(CC4CCN(c5cc(-c6n[nH]c7ccc(OC8(C)CC8)cc67)ncn5)CC4)C(C)(C)C3)CC2)c(F)c2c1C(=O)N(C1CCC(=O)NC1=O)C2 (centres unmarked) [Example 19] | 50 to 70
20 | Cc1cc(N2CCC(O[C@H]3CC[C@@H](CN4CCN(c5cc(-c6n[nH]c7ccc(OC8(C)CC8)cc67)ncn5)CC4)CC3)CC2)c(F)c2c1C(=O)N(C1CCC(=O)NC1=O)C2 (some centres unmarked) [Example 20, 3-(4-fluoro-7-methyl-5-(4-(((1s,4s)-4-((4-(6-(5-(1-methylcyclopropoxy)-1H-indazol-3-yl)pyrimidin-4-yl)piperazin-1-yl)methyl)cyclohexyl)oxy)piperidin-1-yl)-1-oxoisoindolin-2-yl)piperidine-2,6-dione] | < 50
21 | CC1(Cc2ccc3[nH]nc(-c4cc(N5CCC(CN6CCN(CC7CCN(c8ccc9c(c8F)CN(C8CCC(=O)NC8=O)C9=O)CC7)CC6)CC5)ncn4)c3c2)CC1 (centres unmarked) [Example 21] | 50 to 70
22 | CC1(Oc2ccc3[nH]nc(-c4cc(N5CCC(C[C@H]6CC[C@@H](OC7CCN(c8ccc9c(c8F)CN(C8CCC(=O)NC8=O)C9=O)CC7)CC6)CC5)ncn4)c3c2)CC1 (some centres unmarked) [Example 22, 3-[4-fluoro-5-[4-[4-[[1-[6-[5-(1-methylcyclopropoxy)-1H-indazol-3-yl]pyrimidin-4-yl]-4-piperidyl]methyl]cyclohexoxy]-1-piperidyl]-1-oxo-isoindolin-2-yl]piperidine-2,6-dione] | ≥ 70
23 | CC1(Oc2ccc3[nH]nc(-c4cc(N5CCC(C[C@H]6CC[C@H](OC7CCN(c8ccc9c(c8F)CN(C8CCC(=O)NC8=O)C9=O)CC7)CC6)CC5)ncn4)c3c2)CC1 (some centres unmarked) [Example 23] | 50 to 70
24 | CC1(Cc2ccc3[nH]nc(-c4cc(N5CCC(OC6CCN(CC7CCN(c8ccc9c(c8F)CN(C8CCC(=O)NC8=O)C9=O)CC7)CC6)CC5)ncn4)c3c2)CC1 (centres unmarked) [Example 24] | < 50
25 | CC1(Cc2ccc3[nH]nc(-c4cc(N5CCC(CN6CCN(CC7CCN(c8ccc9c(c8F)CN(C8CCC(=O)NC8=O)C9=O)CC7)CC6(C)C)CC5)ncn4)c3c2)CC1 (centres unmarked) [Example 25] | < 50
26 | CC1(Cc2ccc3[nH]nc(-c4cc(N5CCC(CN6CCN(CC7CCN(c8ccc9c(c8F)CN(C8CCC(=O)NC8=O)C9=O)CC7)C(C)(C)C6)CC5)ncn4)c3c2)CC1 (centres unmarked) [Example 26] | 50 to 70
27 | CC1(Oc2ccc3[nH]nc(-c4cc(N5CCC(O[C@H]6CC[C@@H](CC7CCN(c8ccc9c(c8F)CN(C8CCC(=O)NC8=O)C9=O)CC7)CC6)CC5)ncn4)c3c2)CC1 (some centres unmarked) [Example 27] | 50 to 70
28 | COc1c(N2CCC(O[C@H]3CC[C@H](CN4CCN(c5cc(-c6[nH]nc7ccc(CC8(C)CC8)cc67)ncn5)CC4)CC3)CC2)ccc2c1CN(C1CCC(=O)NC1=O)C2=O (some centres unmarked) [Example 28] | 50 to 70
29 | CC1(Oc2ccc3[nH]nc(-c4cc(N5CCC(O[C@H]6CC[C@H](CC7CCN(c8ccc9c(c8F)CN(C8CCC(=O)NC8=O)C9=O)CC7)CC6)CC5)ncn4)c3c2)CC1 (some centres unmarked) [Example 29] | ≥ 70
